In US6057450A, “Derivatives of pyroglutaminic acid preparation process and applications” (Totiam, S.L., priority 1994, dated 2000):

System: human lymphocytes
Assay: in vitro non-specific lymphoproliferative response (RLP-I) to PHA, human lymphocyte cultures
Assay type: cell-based
Settings: for RLP-I B < A, number of witness models / RLP-I B < A, percentage of witness models / RLP-I B > A, number of witness models / RLP-I B > A, percentage of witness models: Table V, PHA + BRM-BLAS (B) versus PHA (A); for number of cases with RLP-I B > A in 67% of the witness models / percentage of cases with RLP-I B > A in 33-50% of the witness models / percentage of cases with RLP-I B > A in 67% of the witness models / number of cases with RLP-I B > A in 33-50% of the witness models / number of cases with RLP-I B > A in 100% of the witness models / percentage of cases with RLP-I B > A in 100% of the witness models: Table VI, intragroup individual analysis
Experimental: The "in vitro" lymphocyte response has been assessed in samples of circulating and peripheral venous blood from asymptomatic blood donor adults of both sexes. In general, the lymphocyte cultures include in each case six experimental models called witnesses, and incorporate progressive doses between 0.25-6.0 units (20-500 ng) of the BRM-BLAS compounds and PHA. The RLP-I of each one has been morphologically determined and is expressed in absolute values of lymphoblasts/10,000.
Systematically, in all the cases it has been tabulated the RLP-I to the PHA, basal, of the PHA models; to the PHA+BRM-BLAS, of the "witness" models and the maximum individual response of the witness models (RMC), in each case.

| Structure (SMILES) | RLP-I B < A, number of witness models (acetate) [Num.] | RLP-I B < A, percentage of witness models (acetate) [%] | RLP-I B > A, number of witness models (acetate) [Num.] | RLP-I B > A, percentage of witness models (acetate) [%] | number of cases with RLP-I B > A in 67% of the witness models [Num.] | percentage of cases with RLP-I B > A in 33-50% of the witness models [%] | percentage of cases with RLP-I B > A in 67% of the witness models [%] | number of cases with RLP-I B > A in 33-50% of the witness models (acetate) [Num.] | number of cases with RLP-I B > A in 100% of the witness models (acetate) [Num.] | percentage of cases with RLP-I B > A in 100% of the witness models (acetate) [%] | RLP-I B < A, number of witness models [Num.] | RLP-I B < A, percentage of witness models [%] | RLP-I B > A, number of witness models [Num.] | RLP-I B > A, percentage of witness models [%] | number of cases with RLP-I B > A in 33-50% of the witness models [Num.] | number of cases with RLP-I B > A in 100% of the witness models [Num.] | percentage of cases with RLP-I B > A in 100% of the witness models [%] |
| --- | --- | --- | --- | --- | --- | --- | --- | --- | --- | --- | --- | --- | --- | --- | --- | --- | --- |
| NC1(C[n+]2ccccc2)CC(C(=O)O)NC1=O (centres unmarked) [BRM-BLAS 236 (Ac), 4-amino-4-(1-pyridiniomethyl) pyroglutamic acid acetate] | 17 | 19 | 73 | 81 | 12 | 100 | 82 | 15 | 6 | 40 |  |  |  |  |  |  |  |
| CC(=O)NC1(C[n+]2ccccc2)CC(C(=O)O)N(C(C)=O)C1=O (centres unmarked) [BRM-BLAS 320 (Cl), 1-acetyl-4-acetylamino-4-(1-pyridiniomethyl) pyroglutamic acid chloride] |  |  |  |  | 11 | 100 | 69 |  |  |  | 29 | 30 | 67 | 70 | 16 | 2 | 13 |
